Data on 19 molecules can be found in patent US9751887B2, “Imidazo[1,2-b]pyridazine derivatives as kinase inhibitors” (Daiichi Sankyo Company, Limited, priority 2012, dated 2017).

Assay [1] concerns the target T1, ROS1 (Homo sapiens, UniProt P08922).
T1 construct: purchased Carna Biosciences 08-163
Kind of assay: ROS1 kinase inhibitory activity evaluation (mobility shift, EZ Reader II). It counts as biochemical. The following applies: ROS1 25 pg/μL, FL-Peptide 22 substrate, three separate measurements. On the procedure:
Next, a substrate reaction solution was prepared. […] Then, the reaction stop solution was added thereto at a concentration of 40 μL/well. Substrate phosphorylation intensity was measured using EZ Reader II (Caliper Life Sciences).

Assay [2] deals with T1, ROS1. Briefly: ROS1 autophosphorylation inhibitory activity evaluation (ADP-Glo). It counts as biochemical. To be noted: 200 nM inactive ROS1, ATP 1 mM, 25° C. 1.5 hours, ADP generated, four separate measurements. The method, boiled down:
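ROS1 autophosphorylation ran with 1 mM final ATP in 50 mM HEPES pH 7.5, 10 mM MgCl2, 0.01% Brij-58, 2.5 mM DTT for 1.5 h at 25° C. ADP generated was read by ADP-Glo luminescence. IC50 values were obtained by curve fitting.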
A general note: ADP-Glo turns the ADP formed in a reaction into a luminescent signal.

The test system of assay [3] is HCC78 cells having ROS1 fusion gene. Briefly: HCC78 cell growth assay (CellTiter-Glo). The format is cell-based. To be noted: Homo sapiens, HCC78, 72 h, 72 hours culture, 2% FBS medium, luminescence, four separate measurements; read-out: growth inhibitory effect on HCC78 cells having ROS1 fusion gene IC50. Background: ATP-based viability assays read luminescence as a measure of living cells.

T1 sequence (P08922 28-2347): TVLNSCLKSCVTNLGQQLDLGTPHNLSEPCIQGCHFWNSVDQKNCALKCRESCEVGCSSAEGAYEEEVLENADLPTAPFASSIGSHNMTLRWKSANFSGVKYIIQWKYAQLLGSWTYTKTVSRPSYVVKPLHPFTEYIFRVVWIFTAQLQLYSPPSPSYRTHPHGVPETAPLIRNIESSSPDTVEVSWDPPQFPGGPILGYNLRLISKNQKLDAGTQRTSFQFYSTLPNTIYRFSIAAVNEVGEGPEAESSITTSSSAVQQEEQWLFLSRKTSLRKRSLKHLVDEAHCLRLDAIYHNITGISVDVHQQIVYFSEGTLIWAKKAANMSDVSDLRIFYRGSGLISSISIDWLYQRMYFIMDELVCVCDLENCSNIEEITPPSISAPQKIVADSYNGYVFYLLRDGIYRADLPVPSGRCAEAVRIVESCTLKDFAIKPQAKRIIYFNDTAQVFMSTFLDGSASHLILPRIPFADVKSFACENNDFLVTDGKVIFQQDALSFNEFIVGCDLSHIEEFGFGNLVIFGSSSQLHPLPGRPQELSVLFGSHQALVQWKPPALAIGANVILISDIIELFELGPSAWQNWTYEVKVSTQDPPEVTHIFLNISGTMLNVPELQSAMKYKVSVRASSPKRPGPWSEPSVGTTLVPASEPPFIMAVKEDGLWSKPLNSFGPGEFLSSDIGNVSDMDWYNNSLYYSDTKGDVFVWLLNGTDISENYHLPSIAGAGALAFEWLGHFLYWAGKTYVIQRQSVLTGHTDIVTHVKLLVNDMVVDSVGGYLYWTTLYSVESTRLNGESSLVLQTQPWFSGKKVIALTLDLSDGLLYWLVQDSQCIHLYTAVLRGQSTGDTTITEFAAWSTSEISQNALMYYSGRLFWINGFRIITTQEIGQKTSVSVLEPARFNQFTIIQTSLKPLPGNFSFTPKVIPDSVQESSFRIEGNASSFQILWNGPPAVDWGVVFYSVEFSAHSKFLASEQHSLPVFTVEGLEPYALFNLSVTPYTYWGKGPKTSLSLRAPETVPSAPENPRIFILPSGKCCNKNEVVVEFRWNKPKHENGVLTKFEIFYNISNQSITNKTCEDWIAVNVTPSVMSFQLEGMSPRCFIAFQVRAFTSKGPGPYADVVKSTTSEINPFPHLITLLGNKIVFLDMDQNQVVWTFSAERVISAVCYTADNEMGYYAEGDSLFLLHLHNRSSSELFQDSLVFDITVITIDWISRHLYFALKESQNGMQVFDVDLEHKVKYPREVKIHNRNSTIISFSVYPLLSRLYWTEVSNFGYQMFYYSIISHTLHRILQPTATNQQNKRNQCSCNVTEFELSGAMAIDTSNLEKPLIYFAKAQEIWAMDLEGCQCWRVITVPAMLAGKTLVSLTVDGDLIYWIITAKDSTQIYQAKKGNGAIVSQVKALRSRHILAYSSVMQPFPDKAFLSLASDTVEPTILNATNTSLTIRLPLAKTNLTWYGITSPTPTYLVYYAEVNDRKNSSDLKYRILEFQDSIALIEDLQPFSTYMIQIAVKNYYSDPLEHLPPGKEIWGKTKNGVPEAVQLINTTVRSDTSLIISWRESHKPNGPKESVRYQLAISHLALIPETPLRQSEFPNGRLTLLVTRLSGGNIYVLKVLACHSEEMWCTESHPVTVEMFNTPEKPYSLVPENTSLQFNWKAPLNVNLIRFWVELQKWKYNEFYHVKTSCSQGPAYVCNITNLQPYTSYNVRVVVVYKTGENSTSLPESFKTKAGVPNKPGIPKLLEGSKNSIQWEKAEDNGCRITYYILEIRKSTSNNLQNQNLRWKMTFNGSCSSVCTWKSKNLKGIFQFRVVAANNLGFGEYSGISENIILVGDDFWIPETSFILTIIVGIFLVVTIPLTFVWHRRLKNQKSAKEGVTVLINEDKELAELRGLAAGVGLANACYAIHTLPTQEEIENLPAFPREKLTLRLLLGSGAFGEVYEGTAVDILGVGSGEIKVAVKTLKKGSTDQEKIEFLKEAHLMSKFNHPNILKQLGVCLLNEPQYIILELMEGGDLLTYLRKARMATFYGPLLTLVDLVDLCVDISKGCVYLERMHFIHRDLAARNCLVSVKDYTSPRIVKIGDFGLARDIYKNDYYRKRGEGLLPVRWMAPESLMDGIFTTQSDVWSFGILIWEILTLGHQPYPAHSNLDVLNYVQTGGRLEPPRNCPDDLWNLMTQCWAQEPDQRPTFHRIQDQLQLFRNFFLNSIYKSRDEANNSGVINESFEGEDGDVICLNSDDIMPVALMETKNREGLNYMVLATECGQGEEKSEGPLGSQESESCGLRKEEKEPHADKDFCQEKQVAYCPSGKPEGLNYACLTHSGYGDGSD

As a reminder, the IC50 is the concentration needed to halve the response being measured. On to `C[C@@H](Nc1ccc2ncc(-c3ccc(F)c(OC[C@@H]4CCN4)c3)n2n1)c1cccc(F)c1` [Example 64, 3-[3-[[(2S)-Azetidin-2-yl]methoxy]-4-fluoro-phenyl]-N-[(1R)-1-(3-fluorophenyl)ethyl]imidazo[1,2-b]pyridazin-6-amine], for which the 50% inhibitory concentration (IC50) on ROS1 [1] lay in the range of 1 to 10 nM; against ROS1 [2] it was 100 to 150 nM; in assay [3], 100 to 600 nM.
Take `C[C@H](N)COc1cccc(-c2cnc3ccc(N[C@H](C)c4cccc(F)c4)nn23)c1` [Example 65, 3-[3-[(2S)-2-Aminopropoxy]phenyl]-N-[(1R)-1-(3-fluorophenyl)ethyl]imidazo[1,2-b]pyridazin-6-amine]: the IC50 was 1 to 10 nM on ROS1 [1], below 20 nM against ROS1 [2] and 20 to 100 nM in assay [3].
For `CNCCCOc1cccc(-c2cnc3ccc(N[C@H](C)c4cccc(F)c4)nn23)c1` [Example 66, N-[(1R)-1-(3-Fluorophenyl)ethyl]-3-[3-[3-(methylamino)propoxy]phenyl]imidazo[1,2-b]pyridazin-6-amine], in that order: 1 to 10 nM, below 20 nM and 20 to 100 nM.
Turning to `C[C@@H](Nc1ccc2ncc(-c3cccc(OCCN)c3)n2n1)c1cccc(F)c1` [Example 67, 3-[3-(2-Aminoethoxy)phenyl]-N-[(1R)-1-(3-fluorophenyl)ethyl]imidazo[1,2-b]pyridazin-6-amine], the IC50 on ROS1 [1] is 1 to 10 nM; on ROS1 [2], below 20 nM; in assay [3] it was 20 to 100 nM.
For `C[C@@H](Nc1ccc2ncc(-c3cccc(OCCCN)c3)n2n1)c1cccc(F)c1` [Example 68, 3-[3-(3-Aminopropoxy)phenyl]-N-[(1R)-1-(3-fluorophenyl)ethyl]imidazo[1,2-b]pyridazin-6-amine], in that order: 1 to 10 nM, below 20 nM and 20 to 100 nM.
With `C[C@@H](Nc1ccc2ncc(-c3ccc(OCCN(C)C)cc3)n2n1)c1cccc(F)c1` [Example 69, 3-[4-(2-Dimethylaminoethoxy)phenyl]-N-[(1R)-1-(3-fluorophenyl)ethyl]imidazo[1,2-b]pyridazin-6-amine], the IC50 was below 1 nM on ROS1 [1], below 20 nM at ROS1 [2] and below 20 nM in assay [3].
Turning to `C[C@@H](Nc1ccc2ncc(-c3ccc(OCCCN(C)C)cc3)n2n1)c1cccc(F)c1` [Example 70, 3-[4-[3-(Dimethylamino)propoxy]phenyl]-N-[(1R)-1-(3-fluorophenyl)ethyl]imidazo[1,2-b]pyridazin-6-amine], the IC50 is below 1 nM on ROS1 [1], below 20 nM against ROS1 [2] and 20 to 100 nM in assay [3].
The like results for `C[C@@H](Nc1ccc2ncc(-c3ccc(OCCN(C)C)nc3)n2n1)c1cccc(F)c1` [Example 71, 3-[6-(2-Dimethylaminoethoxy)-3-pyridyl]-N-[(1R)-1-(3-fluorophenyl)ethyl]imidazo[1,2-b]pyridazin-6-amine] were, in that order, 1 to 10 nM, below 20 nM and below 20 nM.
The like results for `NC1CC(=O)N(c2ccc(-c3cnc4ccc(NCc5ccccc5)nn34)cc2)C1` (stereo not drawn) [Example 72, 4-Amino-1-[4-[6-(benzylamino)imidazo[1,2-b]pyridazin-3-yl]phenyl]pyrrolidin-2-one] were, in that order, below 1 nM, below 20 nM and below 20 nM.
The like results for `NC1CC(=O)N(c2ccc(-c3cnc4ccc(OCc5cccc(F)c5)nn34)cc2)C1` (stereo not drawn) [Example 73, 4-Amino-1-[4-[6-[(3-fluorophenyl)methoxy]imidazo[1,2-b]pyridazin-3-yl]phenyl]pyrrolidin-2-one] were, in that order, 1 to 10 nM, below 20 nM and 20 to 100 nM.
Turning to `NCC1CC(=O)N(c2ccc(-c3cnc4ccc(OCc5cccc(F)c5)nn34)cc2)C1` (stereo not drawn) [Example 74, 4-(Aminomethyl)-1-[4-[6-[(3-fluorophenyl)methoxy]imidazo[1,2-b]pyridazin-3-yl]phenyl]pyrrolidin-2-one], the IC50 was 1 to 10 nM on ROS1 [1], 100 to 150 nM against ROS1 [2] and 100 to 600 nM in assay [3].
`NC1CCN(c2ccc(-c3cnc4ccc(OCc5cccc(F)c5)nn34)cc2)C1=O` (stereo not drawn) [Example 75, 3-Amino-1-[4-[6-[(3-fluorophenyl)methoxy]imidazo[1,2-b]pyridazin-3-yl]phenyl]pyrrolidin-2-one]: the IC50 at ROS1 [1] fell in the range of 1 to 10 nM; on ROS1 [2], 20 to 100 nM; in assay [3] it was 100 to 600 nM.
For `N[C@H]1CC(=O)N(c2ccc(-c3cnc4ccc(OCc5cccc(F)c5)nn34)cc2)C1` [Example 76, (4S)-4-Amino-1-[4-[6-[(3-fluorophenyl)methoxy]imidazo[1,2-b]pyridazin-3-yl]phenyl]pyrrolidin-2-one], in that order: below 1 nM, below 20 nM and 20 to 100 nM.
With `CC1(N)CN(c2ccc(-c3cnc4ccc(OCc5cccc(F)c5)nn34)cc2)C(=O)C12CC2` (stereo not drawn) [Example 77, 7-Amino-5-[4-[6-[(3-fluorophenyl)methoxy]imidazo[1,2-b]pyridazin-3-yl]phenyl]-7-methyl-5-azaspiro[2.4]heptan-4-one], the IC50 was below 1 nM at ROS1 [1], 20 to 100 nM at ROS1 [2] and 20 to 100 nM in assay [3].
`C[C@@H](Oc1ccc2ncc(-c3ccc(N4C[C@H](N)CC4=O)cc3)n2n1)c1cccc(F)c1` [Example 78, (4R)-4-Amino-1-[4-[6-[(1R)-1-(3-fluorophenyl)ethoxy]imidazo[1,2-b]pyridazin-3-yl]phenyl]pyrrolidin-2-one]: the IC50 is 1 to 10 nM on ROS1 [1], below 20 nM against ROS1 [2] and 20 to 100 nM in assay [3].
Turning to `CN[C@H]1CC(=O)N(c2ccc(-c3cnc4ccc(O[C@H](C)c5cccc(F)c5)nn34)cc2)C1` [Example 80, (4S)-1-[4-[6-[(1R)-1-(3-Fluorophenyl)ethoxy]imidazo[1,2-b]pyridazin-3-yl]phenyl]-4-(methylamino)pyrrolidin-2-one], the IC50 was below 1 nM at ROS1 [1], below 20 nM against ROS1 [2] and 20 to 100 nM in assay [3].
Consider `CN(Cc1cccc(F)c1)c1ccc2ncc(-c3ccc(N4CC(N)CC4=O)cc3)n2n1` (stereo not drawn) [Example 82, 4-Amino-1-[4-[6-[(3-fluorophenyl)methyl-methylamino]imidazo[1,2-b]pyridazin-3-yl]phenyl]pyrrolidin-2-one], for which the IC50 at ROS1 [1] is below 1 nM; against ROS1 [2], below 20 nM; in assay [3] it was 20 to 100 nM.
With `CN(Cc1cccc(F)c1)c1ccc2ncc(-c3ccc(N4C[C@@H](N)CC4=O)c(F)c3)n2n1` [Example 83, (4S)-4-Amino-1-[2-fluoro-4-[6-[(3-fluorophenyl)methyl-methylamino]imidazo[1,2-b]pyridazin-3-yl]phenyl]pyrrolidin-2-one], the IC50 at ROS1 [1] was 1 to 10 nM; on ROS1 [2] it was 20 to 100 nM; in assay [3], 20 to 100 nM.
`CN(Cc1cccc(F)c1)c1ccc2ncc(-c3ccc(N4CC(C)(N)CC4=O)cc3)n2n1` (stereo not drawn) [Example 84, 4-Amino-1-[4-[6-[(3-fluorophenyl)methyl-methylamino]imidazo[1,2-b]pyridazin-3-yl]phenyl]-4-methylpyrrolidin-2-one]: the IC50 is 1 to 10 nM at ROS1 [1], 20 to 100 nM on ROS1 [2] and 20 to 100 nM in assay [3].
